The values below come from PMC7377239, “Cardiovascular Effects of Polychlorinated Biphenyls and Their Major Metabolites” (Environmental Health Perspectives, 2020).

Structures are written as SMILES. Like-named read-outs stand apart in the source and are kept apart here.

Data set [1] concerns iCell cardiomyocytes (human iPSC-derived cardiomyocytes). The data set can be described thus: Intracellular Ca2+ flux / beating parameters in iCell cardiomyocytes (FLIPR tetra), 90 min or 24 h. The class given is cell-based. The following applies: for activity at 0.01 µM / activity at 0.1 µM / activity at 1 µM / activity at 10 µM / activity at 100 µM: Homo sapiens, Cardiomyocyte, 0.00 µM = 100.00; for activity at 0.1 µM: 0.10 µM; for inotropic effect (cell beating parameters): iPSC-CMs, concentration-response 0.01-100 μM, 90 min and 24 h. In short, it runs like this: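 PODs were defined as the concentration crossing one SD of the vehicle-control means (0.5% DMSO) on four-parameter logistic fits of Ca2+ trace metrics (peak height, frequency, peak-spacing CV, decay/rise ratio). Traces came from 100 s, 8 Hz FLIPR reads at 37 °C on calcium-dye-loaded iCell cardiomyocytes. Before reading, cells were treated for 90 min or 24 h from 5× chemical plates spanning 0.05–500 µM, in triplicate.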
In general terms: A change in cytosolic calcium serves as a functional read-out for many receptors and channels.

For the next data set, the system named is ryanodine receptor (RyR). The arrangement: method as in Wong et al. 2001, 1997; Wong and Pessah 1997. The following applies: mechanism involving the ryanodine receptor; ref Wong et al. 2001, 1997; Wong and Pessah 1997; cited from earlier work.
The test system of data set [2] is porcine pulmonary artery–derived EC. The arrangement: method as in Hennig et al. 2002, 2005; Toborek et al. 1995. The following applies: ref Hennig et al. 2002, 2005, Toborek et al. 1995; cited from earlier work.
In the next data set the test system is zebrafish. Also on record: method as in Li et al. 2014; Teixidó et al. 2019. As to conditions: ref Li et al. 2014; Teixidó et al. 2019; cited from earlier work.
The mark [3] stands for this setting: 1.5 h, 90min, read-out: cm.amp.avg.90min.
Setting [4] is: 1.5 h, 90min, read-out: cm.amp.cv.90min.
The mark [5] stands for this setting: 1.5 h, 90min, read-out: cm.bpm.90min.
The mark [6] stands for this setting: 1.5 h, 90min, read-out: cm.decay.rise.90min.
Setting [7] is: 1.5 h, 90min, read-out: cm.spacing.cv.90min.
Setting [8] is: 24 h, 24hrs, read-out: cm.amp.avg.24hrs.
[9] abbreviates: 24 h, 24hrs, read-out: cm.amp.cv.24hrs.
[10] abbreviates: 24 h, 24hrs, read-out: cm.bpm.24hrs.
The mark [11] stands for this setting: 24 h, 24hrs, read-out: cm.decay.rise.24hrs.
[12] abbreviates: 24 h, 24hrs, read-out: cm.spacing.cv.24hrs.

Turning to `Clc1cc(Cl)c(-c2cc(Cl)c(Cl)cc2Cl)cc1Cl` [PCB153], the activity at 0.01 µM was 105% in data set [1] (setting [3]); 113% in data set [1] (setting [4]); 107% in data set [1] (setting [5]); 97.7% in data set [1] (setting [6]); 119% in data set [1] (setting [7]); 50.2% in data set [1] (setting [8]). Also, the activity at 0.01 µM in data set [1] (setting [9]) amounted to 50.5%; in data set [1] (setting [10]) it was 51.5%; in data set [1] (setting [11]) it was 57.7%; in data set [1] (setting [12]) it was 50.2%. For the same compound, the activity at 0.1 µM in data set [1] (setting [3]) is 107%; in data set [1] (setting [4]) it was 98.7%; in data set [1] (setting [5]) it was 97.8%; in data set [1] (setting [6]), 100%; in data set [1] (setting [7]), 102%; in data set [1] (setting [8]), 81.6%. The activity at 0.1 µM in data set [1] (setting [9]) was found to be 123%; in data set [1] (setting [10]), 101%; in data set [1] (setting [11]), 92.5%; in data set [1] (setting [12]), 108%. The activity at 1 µM stood at 108% in data set [1] (setting [3]); 121% in data set [1] (setting [4]); 103% in data set [1] (setting [5]); 92.5% in data set [1] (setting [6]); 108% in data set [1] (setting [7]); 125% in data set [1] (setting [8]). Further, the activity at 1 µM in data set [1] (setting [9]) amounted to 84.9%; in data set [1] (setting [10]), 99.3%; in data set [1] (setting [11]), 102%; in data set [1] (setting [12]), 97.8%. The activity at 10 µM was determined as 93.7% in data set [1] (setting [3]); 126% in data set [1] (setting [4]); 120% in data set [1] (setting [5]); 92.4% in data set [1] (setting [6]); 119% in data set [1] (setting [7]); 122% in data set [1] (setting [8]). Further, the activity at 10 µM was 120% in data set [1] (setting [9]), 129% in data set [1] (setting [10]), 93% in data set [1] (setting [11]) and 121% in data set [1] (setting [12]). The activity at 100 µM in data set [1] (setting [3]), in data set [1] (setting [4]), in data set [1] (setting [5]), in data set [1] (setting [6]), in data set [1] (setting [7]) and in data set [1] (setting [8]) was 0% throughout. The activity at 100 µM in data set [1] (setting [9]), in data set [1] (setting [10]), in data set [1] (setting [11]) and in data set [1] (setting [12]) was 0% throughout.
For the compound `Clc1ccc(-c2ccccc2)cc1` [PCB 3, 4-chlorobiphenyl], in data set [1], the “inotropic effect (cell beating parameters)” value is reported as “positive inotropic effects”.
`Clc1ccc(Cl)c(-c2c(Cl)ccc(Cl)c2Cl)c1` [PCB 95, 2,2′,3,5′,6-pentachlorobiphenyl]: the cellular calcium release result in the data set on ryanodine receptor (RyR) is reported as “sensitizing cellular calcium release”.
`Clc1ccc(-c2cc(Cl)c(Cl)c(Cl)c2)cc1Cl` [PCB 126, 3,3′,4,4′,5-pentachlorobiphenyl]: in data set [2], the EC toxicity entry is “potent inducers of EC toxicity”. The “inotropic effect (cell beating parameters)” value in data set [1] is on record as “positive inotropic effects”. In the data set on zebrafish, the “cardiovascular toxicity in zebrafish” value is “pericardial edema, cardiac looping defects, and circulatory failure”.
For the compound `Clc1cc(Cl)c(-c2cc(Cl)c(Cl)cc2Cl)cc1Cl` [PCB 153, 2,2′,4,4′,5,5′-hexachlorobiphenyl], the EC toxicity result in data set [2] is listed as “much less potent”.
